Measurements as given in patent publication US8163803B2 (Fundação Oswaldo Cruz—FIOCRUZ, priority 2004, dated 2012).

Legend:
[1] = system: dorsal subcutaneous tissue of rats; test: Anaphylactic release of histamine by fragments of dorsal subcutaneous tissue; set-up: species or system Wistar rats; conditions: for IC50: 60 min pre-treatment, read-out: IC50, inhibition of histamine release caused by anaphylatic stimulus
Procedure: Female and male Wistar rats were used, weighing between 180 and 200 g, they came from Oswaldo Cruz Foundation's Center of Laboratory Animal Raising. The procedures involving the animals were examined and approved by Oswaldo Cruz Foundation's Committee of Animal Ethics (CEUA-FIOCRUZ, Port. 00085-02). The rats were sensitized with a subcutaneous injection containing a mixture of 50 μg ovalbumina plus 5 mg Al(OH)3. Fourteen days after the sensitization the animals were sacrificed in a chamber of CO2, to have their dorsal hypodermis removed which was fragmented into smaller segments of about 3 mm in a Petri dish containing PBS. The fragments were individually transferred to a dish with 48 pools containing 500 μl of Hanks with Ca^++ and Mg^++.
Five experimental groups were studied in quadruplicates:
I. Saline group, negative control, pools where the tissue was neither treated nor stimulated;
II. Ovoalbumin group, positive control, pools where the tissue was not treated but it was stimulated by ovoalbumin (300 μg/ml);
III. JM24-1 group, pools where the tissue was previously treated with JM24-1 before the stimulation with ovoalbumin (300 μg/ml);
IV. JM25-1 group, pools where the tissue was previously treated with JM25-1 before the stimulation with ovoalbumin (300 μg/ml);
V. JMF2-1 group, pools where the tissue was previously treated with JMF2-1 before the stimulation with ovoalbumin (300 μg/ml).
Treated and non-treated pools were kept at 37° C. in a metabolic incubator (atmosphere containing 95% O2 and 5% CO2) for 60 minutes before the antigenic challenge. After the addition of ovoalbumin (300 μg/ml) all the pools were incubated again in a metabolic oven for more than 60 minutes. After removal of tissue for drying and weighing, the culture medium was collected and acidified with perchloric acid 0.4 N being, after centrifugation 150×g for 10 min. stocked at −20° C. until the moment of fluorimetric quantifying of histamine, according to the previous work. The values were shown like nanograms of released histamine by mg of tissue (dry weight).

[2] = system: cutaneous sites of the dorsal region of adult Wistar rats; test: Local anesthetic activity, intradermal injection in dorsal skin, response to mechanical stimulation; format: in vivo; conditions: for time of anesthesia compared with lidocaine: doses from 0.5 to 4 μMol/site
Procedure: Female and male Wistar rats, weighing between 200 and 250 g, they came from Oswaldo Cruz Foundation's Center of Laboratory Animal Raising were used. The procedures involving the animals were examined and approved by Oswaldo Cruz Foundation's Committee of Animal Ethics (CEUA-FIOCRUZ, License number 00085-02). After brief anesthesia by exposure to the atmosphere enriched with […] animals were trichotomized dorsal region, where the […] injections with substances for test were performed; doses varied from 0.5 to 4 μMol/site, and vehicule (NaCl 0.9%) (negative control), the final volume was 50 μl. Each animal took six injections and four animals were used for each tested substance. The application points were mechanically estimulated with a tweezer in order to evaluate the integrity of sensitiveness. The site was considered not to be anesthesized whenever after the mechanical stimulation it was observed a local retraction of the skin, according to what had been previously reported. The evaluations began 10 minutes after intradermal injections had been taken, which continued every five minutes until it was obtained the cutaneous retraction response. The values (average±standard error of the mean, SEM) were expressed in terms of “Time of Anesthesia” in minutes.

[3] = system: isolated ileum of an experimental animal; test: Anaphylactic contraction of isolated ileum induced by antigen (ovoalbumin); conditions: antigen (10 μg/ml), average ±SEM, at least 3 animals; read-out: Stimulation with antigen IC50
Procedure: (§1) Female and male experimental animals were used, weighing between 300 and 400 g, they came from Oswaldo Cruz Foundation's Center of Laboratory Animal Raising. The procedures involving the animals were examined and approved by Oswaldo Cruz Foundation's Committee of Animal Ethics (CEUA-FIOCRUZ, Licenca no. 00085-02). The animals were sensitized through a subcutanous injection with a mixture of 50 μg ovoalbumin and 5 mg Al(OH)3. From fourteen to thirty days after the sensitization, the experimental, animal was sacrificed in a chamber of carbonic gas to have its abdomen open and the location of the ileocecal valve. At this point, the intestine was sectioned and a segment of the small intestine, about 20 cm (equivalent to the ileum) was carefully removed and internally washed with a warmed solution (37° C.) of Tyrode (Composition in mM) (NaCl 137; KCl 2.7; NaH2PO4 0.42; NaHCO3 11.9; MgCl2 0.5; CaCl2 1.8; glucose 5.6) to remove the fecal content. […].
(§2) About 3-cm ileum fragments were vertically mounted in 10 ml glass cuvettes, immersed in Tyrode's solution at 37° C., aerated with carbogen (O2, 95% and CO2, 5%) and supplemented with atropine according to the standard procedure. The tissue had one of its ends tied to a rod while the other end was coupled with a transductor after the transference from the rod to the cuvette. The contractions were isotonically registered (basal tension of 1 g) with the support of a transductor of displacement-force connected to a computerized system to capture data. After a 30 minute period of balance, each segment was repeatedly stimulated by histamine (1 μM) until response stabilization. To induce anaphylatic contraction, ileum segments from sensitized experimental animals were stimulated by ovoalbumin (10 μg/ml). […]. The results were presented as a percentage of inhibition calculated in relation to the contractive effect obtained from stimulated and non-treated preparations.
(§3) Concentration-response data were adjusted through non-linear regression curves with the assistence of a graphics software (GraphPad Prism, USA). The concentration of an antagonist needed to inhibit the contractive response to inhibit the contractive response after stimulation by histamine or antigen at 50% (IC50) was used to compare the anti-spasmodic potency. The values expressed as an average ± standard error of the mean and statistically analysed through the test of analysis variance (ANOVA), followed by the Newman-Keuls-Student test.

[4] = system: experimental animal trachea; test: Relaxation of trachea pre-contracted by anaphylactic stimulation (ovoalbumin); conditions: pre-contracted with ovoalbumin (20 μg/ml), average±SEM, at least 3 animals; read-out: IC50, concentration necessary to relax in 50% the anaphylatic spasm of trachea
Procedure: Female and male experimental animals were used, weighing between 300 and 400 g, they came from Oswaldo Cruz Foundation's Center of Laboratory Animal Raising. The procedures involving the animals were examined and approved by Oswaldo Cruz Foundation's Committee of Animal Ethics (CEUA-FIOCRUZ, License number 00085-02). The animals were sensitized through a subcutaneous injection with a mixture of 50 μg ovoalbumin and 5 mg Al(OH)3. Fourteen to thirty days after the sensitization, the experimental animal was sacrificed in a chamber of carbonic gas to have its trachea removed. The trachea was transferred to a Petri dish containing Krebs solution (composition in mM) (NaCl-119; […] NaHCO3-25; […] The total segment was divided into fragments of about 3 to 4 rings that were sectioned at the extreme ending, the muscular part of the trachea. Each fragment had one of its ends tied to a rod while the other end was connected to an isometric transductor (U Basile, Italy) after the transference from the rod to a 10 ml glass cuvette. […] The contractions were registered with the […] of a computerized system of data capture (Letica, Spain). […] The results were shown as a percentage of relaxation in relation to the plateau of the anaphylatic pre-contraction. Concentration-response data were adjusted through non-linear regression curves with the […] of a graphics software (GraphPad Prism, USA). […] The values were expressed as an average± standard error of the mean and statistically analysed through the test of analysis variance (ANOVA), followed by the Newman-Keuls-Student test.

[5] = system: isolated ileum of an experimental animal; test: Contraction of isolated ileum induced by histamine; conditions: histamine (5 μM), average ±SEM, at least 3 animals; read-out: Stimulation with histamine IC50
Procedure: as §1, §2, §3

[6] = system: sensitized experimental animals; test: Pulmonary eosinophil infiltrate after ovoalbumin aerosol challenge, bronchoalveolar lavage count; format: in vivo; conditions: 5% aerosol, 30 min, with ovoalbumin 1% plus 3 aerosolizations every 3 h; lavage 24 h after challenge
Procedure: The animals were sensitized through a cutaneous injection of a mixture with 50 μg ovoalbumin and 5 mg Al(OH)3, and challenged with ovoalbumin (1%) aerosol for 30 min 14 days afterwards, according to what was previously described. In order to avoid death of animals by anaphylatic asphyxia, all of them were treated intraperitonially with the anti-histaminic difenidramine (30 mg/kg) 30 minutes before being challenged.
Bronchoalveolar Lavage and Eosinophils Counting
All the animals were anesthesized terminally through an intraperitonial injection of pentobarbital (200 mg/kg) 24 h after the antigenic challenge, to wash the bronchoalveolar space according to the techniques previously described. Total leukocyte count were done after dilution of bronchoalveolar lavage samples in Turk liquid and counting in the Neubauer chamber with the assistance of direct-light microscopy. The differential eosinophil count was done also under direct-light microscopy, after centrifugation of samples of the lavage as well as its exposure to specific dyestuff (May-Grunwald-Giemsa dye).
The averages± standard error of the mean of the groups investigated were analyzed based on statistics through the test of variance analysis (ANOVA), followed by the Newman-Keuls-Student test.
Values, expressed in terms of “number of eosinophils×10^6/lavage” are presented as average±SEM in at least 7 animals. In the negative control group, animals previously sensitized were artificially-challenged through exposure to sterile saline (NaCl, 0.9%) aerosol. […] “*” represents the difference statistically significant (P<0.05), when the group treated and the positive control group were compared.

[7] = system: Swiss 44 mice; test: Convulsivant activity after intraperitoneal injection; format: in vivo; conditions: mouse, in vivo, ip
Procedure: Female and male Swiss 44 mice were used, weighing between 25 and 30 g, they came from Oswaldo Cruz Foundation's Center of Laboratory Animal Raising. The procedures involving the animals were examined and approved by Oswaldo Cruz Foundation's Committee of Animal Ethics (CEUA-FIOCRUZ, Act 00085-02). […] For each molecule, the necessary dose to induce a convulsive clinical Figure in 50% of the animals (DE50) was determined by linear regressive curves interpoled (GraphPad Prim, version 3.03).

[8] = system: Na^+ currents in GH3 cells; test: Tonic block of Na+ currents in GH3 cells, whole cell patch clamp; format: cell-based, Rat
Procedure: Ion channel currents were recorded by means of a patch clamp technique. The cells cultured on the cover glass were placed in a chamber fixed to a microscope stage and continuously perfused with extracellular Saline (A) solution (in mM); 150 NaCl, 5 KCl, 1 MgCl2, 0.01 CaCl2, 1 EGTA, 10 HEPES, 2 BaCl2, 0.1 CdCl2, pH 7.4 at room temperature (22-25° C.) adjusted with NaOH. The cells were observed using phase contrast mode under an inverted microscope (Axiovert 100, Carl Zeiss, Oberkochem, D Germany). Tight-seal (>10 GΩ) whole cell voltage-clamp recordings were performed with an Axopatch-1D amplifier (Axon Instruments, San Mateo, Calif.). […] Fifteen minutes after rupture of the patch membrane, we started to record ion channel currents. Pulse protocols and data acquisition were controlled by Digidata 1320 interface (Axon Instruments, Palo Alto, Calif.), and acquired on a personal computer using Clampex 9 software. The Na^+ current recordings were filtered at 1 kHz and sampled at 8 kHz. About 26% of series resistance was electronically compensated. Drugs were applied to the recording chamber by gravity. Perfusion rate was maintained at 0.8-1.1 ml/min and bath volume was of 50 μl. […] Voltage-gated Na^+ currents were recorded from these cells in the presence or absence of treatment.

[9] = system: patients; conditions: cited from earlier work

Row | SMILES | inhibition of anaphylactic histamine release, result in words ([1]; ovoalbumin (300 μg/ml)) | IC50 ([1]; ovoalbumin (300 μg/ml)) [µM] | time of anesthesia compared with lidocaine [2] | IC50 [3] [µM] | IC50 [4] [µM] | IC50 [5] [µM] | blocking the accumulation of eosinophils in the bronchoalveolar area [6] | DE50, dose to induce convulsion in 50% of the animals [7] [mg/kg] | times more potent than lidocaine, histamine release ([1]; ratio to lidocaine) | Time of Anesthesia ([2]; 4 μMol/site intradermal, n=4, average±SEM) [min] | IC50 ([8]; GH3 cells, holding potential −80 mV to +60 mV step pulse, read-out: IC50, blockade of Na+ currents) [µM] | 50% inhibitory concentration, times higher than lidocaine ([8]; ratio to lidocaine IC50) [times] | attenuation of bronchospasm by histamine [9]
1 | CCN(CC)CC(=O)Nc1cc(C)ccc1C [JM25-1, 2-dyethylamine-2′,5′-acetoxylidide] | concentrations comparable to that of lidocaine | 8.35 | significantly inferior | 120 ± 10 | 130 ± 20 | 140 ± 20 |  |  |  |  |  |  | 
2 | CCN(CC)CC(=O)Nc1ccccc1C(F)(F)F [JMF2-1, 2-dyethylamine-2-trifluormetilacetotoluidide] |  | 0.16 | significantly inferior |  |  | 100 ± 10 | equipotent to lidocaine | 305 | about 29 times | 28 ± 1 | 25400 | 169 | 
3 | CCCCOc1ccc(C(=O)CCN2CCCCC2)cc1 [dyclonine] |  |  |  |  |  |  |  |  |  |  |  |  | ineffective
